Assays:
Assay in all cases: Minimum inhibitory concentration (MIC) in vitro, antibacterial spectrum
Assay type in all cases: cell-based
[1] = system: Staphylococcus aureus Smith
[2] = system: Staphylococcus aureus 209 P JC-1
[3] = system: Escherichia coli NIHJ JC-2
Escherichia coli GN206 = system: Escherichia coli GN206
[4] = system: Salmonella typhimurium LT-2
Proteus mirabilis GN79 = system: Proteus mirabilis GN79
Proteus vulgaris GN76 = system: Proteus vulgaris GN76
Proteus rettgeri GN624 = system: Proteus rettgeri GN624
[5] = system: Serratia marcescens No. 2
[6] = system: Pseudomonas aeruginosa MB3833
[7] = system: Pseudomonas aeruginosa MB3829
[8] = system: Pseudomonas aeruginosa E-2
[9] = system: Streptococcus faecalis ATCC8043
[10] = system: Streptococcus faecalis W-73
[11] = system: Streptococcus faecalis W-74
[12] = system: Streptococcus faecalis W-75

Minimum inhibitory concentration (MIC) [1]	Minimum inhibitory concentration (MIC) [2]	Minimum inhibitory concentration (MIC) [3]	Minimum inhibitory concentration (MIC) (Escherichia coli GN206)	Minimum inhibitory concentration (MIC) [4]	Minimum inhibitory concentration (MIC) (Proteus mirabilis GN79)	Minimum inhibitory concentration (MIC) (Proteus vulgaris GN76)	Minimum inhibitory concentration (MIC) (Proteus rettgeri GN624)	Minimum inhibitory concentration (MIC) [5]	Minimum inhibitory concentration (MIC) [6]	Minimum inhibitory concentration (MIC) [7]	Minimum inhibitory concentration (MIC) [8]	Minimum inhibitory concentration (MIC) [9]	Minimum inhibitory concentration (MIC) [10]	Minimum inhibitory concentration (MIC) [11]	Minimum inhibitory concentration (MIC) [12]	Compound
3.13	1.56	0.10	0.78	0.05	0.025	0.025	0.39	0.10	50	12.5	100	3.13	100	100	1.56	CO/N=C(\C(=O)N[C@@H]1C(=O)N2C(C(=O)O)=C(CSc3nc(=O)c(=O)[nH]n3C)CS[C@H]12)c1csc(N)n1 [Ceftriaxone, reference compound]
0.78	0.78	0.10	3.13	0.05	0.05	0.10	0.39	0.39	25	12.5	50	12.5	50	50	0.39	CO/N=C(\C(=O)N[C@@H]1C(=O)N2C(C(=O)O)=C(CSc3nc(=O)c(O)nn3C)CO[C@H]12)c1csc(N)n1 [Compound No. 3, (6R,7R)-7-[(Z)-2-(2-aminothiazol-4-yl)-2-(methoxyimino)acetamido]-3-(2,5-dihydro-6-hydroxy-2-methyl-5-oxo-1,2,4-triazin-3-yl) thiomethyl-l-oxa-l-dethia-ceph-3-em-4-carboxylic acid]
1.56	1.56	0.05	1.56	0.025	0.10	100	0.10	0.20	100	100	100	25	100	50	6.24	Cn1nc(O)c(=O)nc1SCC1=C(C(=O)O)N2C(=O)[C@@H](NC(=O)C(NC=O)c3csc(N)n3)[C@H]2OC1 (stereo partly drawn) [Compound No. 8, (6R,7R)-7-[2-(2-aminothiazol-4-yl)-2-(form-amido)acetamido]-3-(2,5-dihydro-6-hydroxy-2-methyl-5-oxo-1,2,4-triazin-3-yl)thiomethyl-l-oxa-l-dethia-ceph-3-em-4-carboxylic acid]
3.13	3.13	0.10	0.39	0.05	0.10	0.20	0.05	0.10	6.25	12.5	6.25	25	100	100	100	CO[C@@]1(NC(=O)C(C(=O)O)c2ccc(O)cc2)C(=O)N2C(C(=O)O)=C(CSc3nnnn3C)CO[C@@H]21 (stereo partly shown) [Latamoxef, reference compound]

From patent EP0188781A1, “1-Oxa-1-dethia-cephalosporin compounds and antibacterial agent comprising the same” (Merck & Co., Inc., priority 1984, dated 1986)
